The values that follow come from patent US7964631B2, “Fused tricyclic compounds as inhibitors of tumor necrosis factor-α” (Piramal Life Sciences Limited, priority 2004, dated 2011).

SMILES strings stand for the structures. Counter-ions that a name gives are not always drawn.

For data set [1], the system named is peripheral blood mononuclear cells (PBMC). The experiment in a line: Cytotoxicity of test compounds in PBMC, cell viability by MTS reagent. The data set is classed as cell-based, human. On the procedure:
(§1) TNF-α production by LPS in peripheral blood mononuclear cells (PBMC) was measured according to the method described by Henry et al (J. Bioorg. Med. Chem. Lett., 8: 3335-3340, 1998). Briefly, blood was collected from healthy donors into Potassium EDTA vacutainer tubes (Vacutest Plast/Becton Dickinson). PBMC were isolated using gradient centrifugation in Ficoll-Paque solution (Pharmacia). Isolated PBMC were suspended in RPMI 1640 culture medium (Gibco BRL, Pasley, UK) containing 10% fetal bovine serum (FBS) (Hyclone, Utah, USA), 100 U/ml penicillin (Sigma Chemical Co. St Louis, Mo.) and 100 μg/ml streptomycin (Sigma Chemical Co. St Louis, Mo.). The cell concentration was adjusted to 1×10^6 cells/ml. The viability as determined by trypan blue dye exclusion was uniformly ≧98%. The cell suspension (100 μl) was added to the wells of a 96-well culture plate. Following cell plating, 79 μl of the culture medium and 1 μl of eight different concentrations of the test compounds (final concentration 0.03, 0.1, 0.3, 1, 3, 10, 30, 100 μM) dissolved in DMSO (dimethylsulfoxide, Sigma, Mo., USA) were added to the cells. The final concentration of DMSO was adjusted to 0.5%. The appropriate DMSO concentration was used as control. Rolipram (30 μM) was used as a standard compound. The plates were incubated for 30 min at 37° C. in an atmosphere of 5% CO2. Finally, 20 μl (10 μg/ml) per well of LPS, (Escherchia coli 0127:B8, Sigma Chemical Co., St. Louis, Mo.) was added, for a final concentration of 1 μg/ml. The plates were incubated at 37° C. for 4.5 h in an atmosphere of 5% CO2. To determine the cytotoxicity of the test compounds, the cell viability was assessed using MTS (3-(4,5-dimethylthiazol-2-yl)-5-(3-carboxymethoxyphenyl)-2-(4-sulfonyl)-2H-tetrazolium) reagent (Promega) after 4.5 h of incubation. Supernatants were harvested and assayed for TNF-α by ELISA as described by the manufacturer (R&D Systems, MN, BD Biosciences Pharmingen) or by cytotoxicity bioassay in L929 cells. The 50% inhibitory concentration (IC50) values were calculated by a nonlinear regression method using GraphPad software (Prism 3.03)

Data set [2] has as its system TNF-α. The experiment in a line: LPS-induced TNF-α release in BALB/c mice. As to conditions: Mus musculus, LPS 1 mg/kg i.p. 1 h after dosing, plasma TNF-α 1.5 h after LPS, read-out: % inhibition (Mean ± SE*); for inhibition in vivo at 100 mg/kg: 100 mg/kg po; for inhibition in vivo at 30 mg/kg: 30 mg/kg po. The data set is classed as in vivo. On the procedure:
The protocol described by Fukuda T. et al (Eur. J. Pharmacol., 391: 317-320, 2000) was followed. BALB/c mice were divided into groups of five to ten each. The test compound, suspended in Tween 80-0.5% carboxy methylcellulose (CMC), with a few drops of Tween 80 as wetting agent if necessary, was administered orally (p.o.) to the mice. One hour later, LPS dissolved in sterile, pyrogen-free saline was administered i.p. at the dose of 1 mg/kg. The negative control group received saline as an i.p injection, while all other groups received LPS. Rolipram (30 mg/kg) was used as the standard drug. One and a half hours later, blood was collected in heparin. Plasma was separated by centrifugation at 13000 rpm (Heraeus Biofuge Pico Centrifuge) at room temperature, aliquoted and stored at −70° C. until analysis.
TNF-α levels in the blood samples were assayed using ELISA and % inhibition of TNF-α release compared to the control group was calculated.

Data set [3] concerns TNF-α. In words: LPS-induced TNF-α production in peripheral blood mononuclear cells (secondary screening). The format is cell-based. The note with it: 4.5 h, TNF-α production in PBMC, LPS 1 μg/ml, ELISA or L929 bioassay. On the procedure: as §1
Data set [4] relates to TNF-α. The experiment in a line: Whole blood cell culture assay: LPS-induced TNF-α release (primary screening). The data set is classed as cell-based, human. The note with it: Homo sapiens, Whole blood cell; test compound 1 μM; diluted whole blood of healthy donors; LPS 1 μg/ml, 4.5 h; vs DMSO control. On the procedure: TNF-α production by lipopolysaccharide (LPS) in whole blood was measured according to the method described by Wilson et al (J. Immunol. Methods, 139: 233-240, 1991). Briefly, blood was collected from healthy donors into potassium EDTA vacutainer tubes (Vacutest Plast/Becton Dickinson) and diluted with RPMI 1640 culture medium (Gibco BRL, Pasley, UK) containing 100 U/ml penicillin and 100 μg/ml streptomycin, (100× solution, Sigma Chemical Co. St Louis, Mo.) with no added serum. The white blood cell count was adjusted to 1×10^6 cells/ml and 100 μl/well of the diluted blood was transferred into 96-well culture plates. Following cell plating, 79 μl of culture medium and 1 μl of the test compounds (final concentration 1 μM) dissolved in DMSO (dimethylsulfoxide, Sigma, Mo., USA) was added to the cells. The final concentration of DMSO was adjusted to 0.5%. 1 μl of vehicle (0.5% DMSO) was used as control. Rolipram (100 μM) was used as a standard compound. The plates were incubated for 30 min at 37° C. in an atmosphere of 5% CO2. Finally, 20 μl (10 μg/ml) per well of LPS (Escherchia coli 0127:B8, Sigma Chemical Co., St. Louis, Mo.) was added, for a final concentration of 1 μg/ml. Plates were incubated at 37° C. for 4.5 h in an atmosphere of 5% CO2. Supernatants were harvested and assayed for TNF-α by ELISA as described by the manufacturer (R&D Systems, MN) or by cytotoxicity bioassay in L929 cells. Percent inhibition of TNF-α release in comparison to the control was calculated.

`COC(=O)c1cc(C)c2c(c1)S(=O)(=O)Cc1cc(N)cc(Cl)c1O2` [Example 1, 2-Amino-4-chloro-6-methyl-10,10-dioxo-10,11-dihydro-5-oxa-10lambda*6*-thia-dibenzo[a,d]cycloheptene-8-carboxylic acid methyl ester]: the melting point (usually the temperature of the solid-liquid transition) is 258 to 260 °C. Also, the “% toxicity (10 μM), 5 h” value in data set [1] is on record as 12%. Further, in data set [2] (10 mg/kg po), the inhibition in vivo at 10 mg/kg is 64.9 ± 3.97%. Also, the midpoint of inhibition in data set [3], the IC50, lay at 8600 nM.

`Cc1cc(C(=O)O)cc2c1Oc1c(Cl)cc(N)cc1CS2(=O)=O` [Example 3, 2-Amino-4-chloro-6-methyl-10,10-dioxo-10,11-dihydro-5-oxa-10lambda*6*-thia-dibenzo[a,d]cycloheptene-8-carboxylic acid sodium salt]: in data set [2], the inhibition in vivo at 100 mg/kg was determined as 40.7 ± 12.7%.

With `Cc1cc(C(=O)O)cc2c1Oc1c(Cl)cc(NC=O)cc1CS2(=O)=O` [Example 7, 4-Chloro-2-formylamino-6-methyl-10,10-dioxo-10,11-dihydro-5-oxa-10lambda*6*-thia-dibenzo[a,d]cycloheptene-8-carboxylic acid], the inhibition in vivo at 100 mg/kg in data set [2] turned out to be 55.8 ± 9.24%.

Turning to `COC(=O)c1cc(C)c2c(c1)S(=O)(=O)Cc1cc(NC=O)cc(Cl)c1O2` [Example 9, 4-Chloro-2-formylamino-6-methyl-10,10-dioxo-10,11-dihydro-5-oxa-10lambda*6*-thia-dibenzo[a,d]cycloheptene-8-carboxylic acid methyl ester], the melting point was 258 to 262 °C (dec.). For the same compound, the “% toxicity (10 μM), 5 h” value in data set [1] amounted to 09%. Moreover, the inhibition (commonly the share of the control response that was lost under treatment) at 1 µM in data set [4] was found to be 31%. The concentration for half-maximal inhibition (IC50) – broadly, the midpoint of a concentration-inhibition curve – in data set [3] was 2600 nM.

`Cc1cc(C(=O)OC(C)C)cc2c1Oc1c(Cl)cc(NC=O)cc1CS2(=O)=O` [Example 11, 4-Chloro-2-formylamino-6-methyl-10,10-dioxo-10,11-dihydro-5-oxa-10lambda*6*-thia-dibenzo[a,d]cycloheptene-8-carboxylic acid isopropyl ester]: the melting point fell in the range of 212 to 215 °C. For the same compound, the “% toxicity (10 μM), 5 h” value in data set [1] is on record as 25%. For the same compound, the inhibition in vivo at 100 mg/kg in data set [2] was found to be 77.9 ± 9.85%. The compound further had an inhibition at 1 µM in data set [4] of 51%. In data set [3], this compound came in with an IC50 of 21000 nM.

For `Cc1cc(C(=O)O)cc2c1Oc1c(Cl)cc(N3CCNCC3)cc1CS2(=O)=O` [Example 18, 4-Chloro-6-methyl-10,10-dioxo-2-piperazin-1-yl-10,11-dihydro-5-oxa-10lambda*6*-thia-dibenzo[a,d]cycloheptene-8-carboxylic acid], the inhibition in vivo at 100 mg/kg in data set [2] was determined as 22.7 ± 8.47%.

`COC(=O)c1cc(C)c2c(c1)S(=O)(=O)Cc1cc(N3CCN(C=O)CC3)cc(Cl)c1O2` [Example 20, 4-Chloro-2-(4-formyl-piperazin-1-yl)-6-methyl-10,10-dioxo-10,11-dihydro-5-oxa-10lambda*6*-thia-dibenzo[a,d]cycloheptene-8-carboxylic acid methyl ester]: in data set [1], the “% toxicity (10 μM), 5 h” value is 24%. Further, the inhibition in vivo at 30 mg/kg in data set [2] came to 27.9 ± 17.5%. This compound gave an IC50 in data set [3] of 1100 nM.

As to `COC(=O)c1cc(C)c2c(c1)S(=O)(=O)Cc1cc(N3CCN(C(C)=O)CC3)cc(Cl)c1O2` [Example 21, 2-(4-Acetyl-piperazin-1-yl)-4-chloro-6-methyl-10,10-dioxo-10,11-dihydro-5-oxa-10lambda*6*-thia-dibenzo[a,d]cycloheptene-8-carboxylic acid methyl ester], the “% toxicity (10 μM), 5 h” value in data set [1] is on record as 44%. Further, the inhibition in vivo at 30 mg/kg in data set [2] was found to be 54.6 ± 11.7%. 4000 nM corresponded to half-maximal inhibition in data set [3] (IC50).

`COC(=O)c1cc(C)c2c(c1)S(=O)(=O)Cc1cc(N3CCN(CCO)CC3)cc(Cl)c1O2` [Example 22, 4-Chloro-2-[4-(2-hydroxy-ethyl)-piperazin-1-yl]-6-methyl-10,10-dioxo-10,11-dihydro-5-oxa-10lambda*6*-thia-dibenzo[a,d]cycloheptene-8-carboxylic acid methyl ester]: the “% toxicity (10 μM), 5 h” value in data set [1] came to 16%. For the same compound, in data set [2], the inhibition in vivo at 100 mg/kg amounted to 57.7 ± 5.66%. Further, the IC50 in data set [3] was found to be 880 nM.

Regarding `COC(=O)c1cc(C)c2c(c1)S(=O)(=O)Cc1cc(N3CCN(S(C)(=O)=O)CC3)cc(Cl)c1O2` [Example 25, 4-Chloro-2-(4-methanesulfonyl-piperazin-1-yl)-6-methyl-10,10-dioxo-10,11-dihydro-5-oxa-10lambda*6*-thia-dibenzo[a,d]cycloheptene-8-carboxylic acid methyl ester], the “% toxicity (10 μM), 5 h” value in data set [1] stood at 18%. Further, the inhibition in vivo at 30 mg/kg in data set [2] turned out to be 33.6 ± 16.5%. The IC50 in data set [3] amounted to 600 nM.

As for `Cc1cc(C(=O)OC(C)C)cc2c1Oc1c(Cl)cc(N3CCNCC3)cc1CS2(=O)=O.Cl` [Example 28, 4-Chloro-6-methyl-10,10-dioxo-2-piperazin-1-yl-10,11-dihydro-5-oxa-10lambda*6*-thia-dibenzo[a,d]cycloheptene-8-carboxylic acid isopropyl ester hydrochloride], the melting point is 262 to 264 °C. Further, the “% toxicity (10 μM), 5 h” value in data set [1] is given as 15%. This compound also yielded an inhibition at 1 µM in data set [4] of 70%. In data set [3], the midpoint of inhibition, the IC50, lay at 10500 nM.

The compound `COC(=O)c1cc(C)c2c(c1)S(=O)(=O)Cc1ccc(N3CCNCC3)c(Cl)c1O2.Cl` [Example 32, 4-Chloro-6-methyl-10,10-dioxo-3-piperazin-1-yl-10,11-dihydro-5-oxa-10lambda*6*-thia-dibenzo[a,d]cycloheptene-8-carboxylic acid methyl ester hydrochloride] yielded a melting point of 235 to 237 °C. Besides, in data set [1], the “% toxicity (10 μM), 5 h” value turned out to be 27%. This compound also registered an inhibition at 1 µM in data set [4] of 96%. Half-maximal inhibition in data set [3] (IC50) required 160 nM.

In the case of `COC(=O)Cc1cc(C)c2c(c1)S(=O)(=O)Cc1cc(N3CCNCC3)cc(Cl)c1O2.Cl` [Example 33, (4-Chloro-6-methyl-10,10-dioxo-2-piperazine-1-yl-10,11-dihydro-5-oxa-10lambda*6*-thia-dibenzo[a,d]cyclohepten-8-yl)-acetic acid methyl ester hydrochloride], the melting point is 280 °C (dec.). The “% toxicity (10 μM), 5 h” value in data set [1] came out at 29%. In data set [4], 1 µM produced 95% inhibition. This compound showed an IC50 in data set [3] of 200 nM.
